The nature of series [1]: in vitro. It is filed as cell-based. Conditions: mouse. The method, then: Cytotoxicity assays were performed using the methodology proposed by Domínguez-Diaz et al. on a mouse macrophage cell line (J774.2). Cells were cultured in LIT medium supplemented with 10% SFB, penicillin (100 U μg/mL), and streptomycin (100 U μg/mL) at 37 °C in a 5% CO2 atmosphere. The culture medium was replaced at 2–3 day intervals. To evaluate the cytotoxicity of the compounds, 50,000 cells/well were plated in a 96-well plate and allowed to adhere for 24 h at 37 °C. Subsequently, the compounds were added at concentrations of 0.8 to 100 μg/mL to obtain a final volume of 200 μL and incubated for […] with 5% CO2. DMSO 0.1% (maximum concentration used) was included as a negative control and the control drugs as positive ones. The metabolic activity of the cell was determined following the MTT method, the % cell viability was calculated, and the median lethal concentration (LC50) was determined by Probit analysis. Analyses were performed in triplicate, and the Selectivity Index (SI) for the three parasitic stages in the NINOA and A1 strains (CC50/IC50) was calculated.

The test system of series [2] is T. cruzi epimastigotes, NINOA strain. Briefly: Trypanocidal activity, epimastigotes in vitro, NINOA strain. It counts as cell-based. The note with it: Trypanosoma cruzi; 48 h, resazurin; ± SD; read-out: Epimastigote (In Vitro) NINOA IC50. The text has this:
(§1) The selected drugs were purchased from Sigma-Aldrich without further purification. For the in vitro evaluation, the methodology proposed by Domínguez-Diaz et al. 2021 [53] against epimastigotes of T. cruzi strains NINOA (MHOM/MX/1994/NINOA) and A1 for the evaluation of candidate compounds was used. Both strains were maintained in liver-infusion tryptose (LIT) medium supplemented with 10% fetal bovine serum (FBS) and 0.1% penicillin–streptomycin. These strains were maintained by transferring 1 × 10^6 parasites/mL to fresh medium once a week. […] All compounds were initially prepared at a concentration of 10 mg/mL using dimethyl sulfoxide (DMSO) as a diluent. Serial dilutions were then performed with LIT medium until concentrations of 100 to 0.46 μg/mL of each compound were obtained. Amounts of 1 × 10^6 T. cruzi epimastigotes were grown in each well and incubated for 48 h at 28 °C in a final volume of 200 μL. DMSO was included as a negative control, and reference drugs as positive controls. At the end of the incubation period, 20 μL of resazurin solution (2.5 mM) was added to each well and incubated for 3 h. All assays were performed in triplicate, and the IC50 value was determined by probit analysis.

For series [3], the system named is T. cruzi epimastigotes, A1 strain. The experiment in a line: Trypanocidal activity, epimastigotes in vitro, A1 strain. It counts as cell-based. The note with it: Trypanosoma cruzi; 48 h, resazurin; ± SD; read-out: Epimastigote (In Vitro) A1 IC50.
Excerpt: as §1

The subject of series [4] is T. cruzi blood trypomastigotes, NINOA strain. Briefly: Trypanocidal activity, blood trypomastigotes ex vivo, NINOA strain. It is filed as cell-based. Conditions: Trypanosoma cruzi; 24 h at 4 °C; ± SD; read-out: Trypomastigote (Ex Vivo) NINOA IC50. The method, then:
(§2) Ex vivo evaluation of the trypanocidal activity of the tested compounds was conducted according to previously established protocols. Blood was collected via intracardiac puncture from mice infected with T. cruzi NINOA and A1 strains and diluted in phosphate-buffered saline (PBS, pH 7.2) to achieve a final concentration of 2 × 10^6 blood trypomastigotes/mL. […] The plates were incubated at 4 °C for 24 h. […] Following incubation, live parasites were quantified using a Neubauer chamber, and the half-maximal inhibitory concentration (IC50) was determined by probit analysis. All assays were performed in three independent experiments, each conducted in triplicate.

Series [5] has as its system T. cruzi blood trypomastigotes, A1 strain. The experiment in a line: Trypanocidal activity, blood trypomastigotes ex vivo, A1 strain. It is filed as cell-based. Conditions: Trypanosoma cruzi; 24 h at 4 °C; ± SD; read-out: Trypomastigote (Ex Vivo) A1 IC50. The method, then:
as §2

Series [6] deals with T. cruzi amastigotes, NINOA strain. The experiment in a line: Amastigote assay, NINOA strain. It counts as cell-based. Conditions: Trypanosoma cruzi; in J774.2 macrophages, 48 h, MTT; ± SD; read-out: Amastigote (Ex Vivo) NINOA IC50. As to the method: (§3) Amastigote susceptibility to reference drugs was evaluated in vitro. […] The lysis solution was then replaced with Schneider’s medium followed by incubation at 28 °C for another 4 to 5 days to allow the transformation of viable amastigotes and their subsequent proliferation. Then, MTT colorimetric assays were performed. Finally, the half maximal inhibitory concentration (IC50) was determined by probit analysis. All studies were approved by the Institutional Committee for Handling and Animal Care of the Facultad de Ciencias Quimicas de la Universidad Autonoma “Benito Juarez” de Oaxaca (Register FCQ-CIP-0209243, Approved 23 September 2024) and were carried out according to Mexican guidance (NOM-062-ZOO-1999).

Series [7] deals with T. cruzi amastigotes, A1 strain. Briefly: Amastigote assay, A1 strain. It counts as cell-based. The note with it: Trypanosoma cruzi; in J774.2 macrophages, 48 h, MTT; ± SD; read-out: Amastigote (Ex Vivo) A1 IC50. As to the method: as §3
Series [8] has as its target T1, hCA I (Homo sapiens, UniProt P00915).
T1 construct: made in house
Briefly: CO2 hydrase stopped-flow assay, hCA I. It counts as biochemical. Conditions: mean of three assays, errors ±5–10%. As to the method: (§4) An Applied Photophysics stopped-flow instrument was used for assaying the CA-catalysed CO2 hydration activity. […] The uncatalyzed rates were determined in the same manner and subtracted from the total observed rates. Stock solutions of inhibitor (0.1 mM) were prepared in distilled/deionized water, and dilutions up to 0.01 nM were performed thereafter with the assay buffer. Inhibitor and enzyme solutions were preincubated together for 15 min at room temperature before assaying to allow for the formation of the E–I complex. The inhibition constants were obtained by nonlinear least-squares methods using PRISM 3 and the Cheng–Prusoff equation and represent the mean from at least three different determinations. […] All hCA isoforms were recombinant ones obtained in-house, as reported earlier.

In series [9] the target is T2, hCA II (Homo sapiens, UniProt P00918).
T2 construct: made in house
Briefly: CO2 hydrase stopped-flow assay, hCA II. Conditions: mean of three assays, errors ±5–10%. It counts as biochemical. As to the method: as §4

Series [10] addresses α-TcCA (Trypanosoma cruzi, UniProt Q4CVY4). The experiment in a line: CO2 hydrase stopped-flow assay, α-TcCA.
Protocol: An Applied Photophysics stopped-flow instrument was used for assaying the CA-catalysed CO2 hydration activity [31]. […] The uncatalyzed rates were determined in the same manner and subtracted from the total observed rates. Stock solutions of inhibitor (0.1 mM) were prepared in distilled/deionized water, and dilutions up to 0.01 nM were performed thereafter with the assay buffer. Inhibitor and enzyme solutions were preincubated together for 15 min at room temperature before assaying to allow for the formation of the E–I complex. The inhibition constants were obtained by nonlinear least-squares methods using PRISM 3 and the Cheng–Prusoff equation and represent the mean from at least three different determinations.
In series [11] the test system is T. cruzi epimastigotes. The arrangement: method as in PMID 32560043. Conditions: in vitro epimastigote model; cited from earlier work.

Sequence of α-TcCA (Q4CVY4 entry or part of it): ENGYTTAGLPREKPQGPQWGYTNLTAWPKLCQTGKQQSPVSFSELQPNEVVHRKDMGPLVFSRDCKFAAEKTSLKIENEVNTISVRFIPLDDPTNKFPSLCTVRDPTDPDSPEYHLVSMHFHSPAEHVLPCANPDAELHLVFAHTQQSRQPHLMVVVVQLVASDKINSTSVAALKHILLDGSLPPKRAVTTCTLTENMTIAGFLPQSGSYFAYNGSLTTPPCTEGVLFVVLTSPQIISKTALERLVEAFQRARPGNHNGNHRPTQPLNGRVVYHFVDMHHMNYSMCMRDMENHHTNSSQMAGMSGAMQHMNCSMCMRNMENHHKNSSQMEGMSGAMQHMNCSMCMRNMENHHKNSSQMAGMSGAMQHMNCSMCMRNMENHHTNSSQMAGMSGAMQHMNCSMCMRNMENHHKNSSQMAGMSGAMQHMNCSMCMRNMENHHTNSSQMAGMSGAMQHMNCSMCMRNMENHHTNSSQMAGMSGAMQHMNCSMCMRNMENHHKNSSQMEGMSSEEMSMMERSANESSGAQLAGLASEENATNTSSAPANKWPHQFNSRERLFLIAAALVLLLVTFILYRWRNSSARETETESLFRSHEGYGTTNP
T1 sequence (P00915 whole entry): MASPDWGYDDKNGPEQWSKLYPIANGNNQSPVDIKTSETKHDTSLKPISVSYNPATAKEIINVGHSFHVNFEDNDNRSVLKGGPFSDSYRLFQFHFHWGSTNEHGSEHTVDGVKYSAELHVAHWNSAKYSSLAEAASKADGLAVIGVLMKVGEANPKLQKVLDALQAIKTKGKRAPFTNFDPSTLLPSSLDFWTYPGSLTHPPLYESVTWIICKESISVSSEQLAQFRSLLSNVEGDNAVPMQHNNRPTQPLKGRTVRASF

Consider `CC(=O)Nc1nnc(S(N)(=O)=O)s1` [Aaz, acetazolamide], for which, in series [1], it took 12.6 ± 4.7 µM to reach half-maximal cytotoxicity (CC50 at 48 h).

Take `CC(=O)c1ccc(S(=O)(=O)NC(=O)NC2CCCCC2)cc1` [Ace, acetohexamide]: the 50% inhibitory concentration (IC50) in series [2] is 6.5 ± 2.1 µM; in series [3], 52.9 ± 2.7 µM; in [4] it was 46.5 ± 0.1 µM; in [5], greater than 200 µM; in series [6], 46 ± 0.6 µM; in [7], greater than 200 µM. The molecule further registered a CC50 at 48 h in series [1] greater than 200 µM. The Ki in [8] was 17.3 µM; in series [9] it was 2.9 µM; in series [10] it was 5.6 µM.

Regarding `O=C(Cn1ccnc1[N+](=O)[O-])NCc1ccccc1` [Bzn, Benznidazole], the concentration for half-maximal inhibition (IC50) in series [2] was 30.3 ± 0.03 µM; in [3], 19.3 ± 0.08 µM; in [4] it was 167.1 ± 0.03 µM; in [5], 145.3 ± 0.2 µM.

In the case of `Cc1ccc(S(=O)(=O)NC(=O)NN2CC3CCCC3C2)cc1` (stereo not shown) [Glic, gliclazide], the IC50 in series [2] was greater than 200 µM; in series [3], 10.7 ± 1.5 µM; in series [4] it was 89.4 ± 0.1 µM; in series [5], greater than 200 µM; in series [6] it was greater than 200 µM; in series [7], 12.3 ± 0.01 µM. In addition, the half-maximal cytotoxic concentration (CC50) at 48 h in series [1] was greater than 200 µM. For the same molecule, the Ki in series [8] and in series [10] was greater than 100 µM throughout.

On to `CCC1=C(C)CN(C(=O)NCCc2ccc(S(=O)(=O)NC(=O)N[C@H]3CC[C@H](C)CC3)cc2)C1=O` [Glim, glimepiride], for which the IC50 was 70.2 ± 3.2 µM in series [2]; 37.6 ± 1.5 µM in series [3]; greater than 200 µM in series [4]; greater than 200 µM in [5]; greater than 200 µM in series [6]; 50.26 ± 0.01 µM in [7]. For the same molecule, half-maximal cytotoxicity in series [1] (CC50 at 48 h) was put at 14.2 ± 2.3 µM. For the same molecule, the inhibitory constant (Ki) in series [8] was greater than 100 µM; in [9], 19.9 µM; in [10] it was 35.7 µM.

With `CC1CS(=O)(=O)CCN1/N=C/c1ccc([N+](=O)[O-])o1` (stereo not shown) [Nfx, Nifurtimox], the IC50 was found to be 7.1 ± 0.1 µM in series [2]; 39.1 ± 0.07 µM in [3]; 156 ± 0.1 µM in series [4]; 118.2 ± 0.02 µM in [5]; 70.5 ± 0.6 µM in series [6]; 54.8 ± 0.01 µM in [7].

On to `CCCCNC(=O)NS(=O)(=O)c1ccc(C)cc1` [Tol, tolbutamide], for which the half-maximal inhibitory concentration (IC50) in [2] is 8.5 ± 1.4 µM; in [3], greater than 200 µM; in series [4], 9.8 ± 0.1 µM; in series [5], 97.7 ± 0.1 µM; in series [6], 148.7 ± 0.01 µM; in series [7], 44.5 ± 0.01 µM. Besides, in series [1], the half-maximal cytotoxic concentration (CC50) at 48 h is greater than 200 µM. Further, the inhibition constant (Ki) in series [8], in series [9] and in [10] was greater than 100 µM each time. Further, the “KI TcCA” value in series [10] (mean of three assays, errors ±5–10%) is recorded as “did not exhibit inhibitory activity”.

In the case of `Cc1cnc(C(=O)NCCc2ccc(S(=O)(=O)NC(=O)NC3CCCCC3)cc2)cn1` [glipizide], in series [11], the IC50 is 13.4 ± 6 µM.

These data come from article PMC12114598, “Repositioning FDA-Approved Sulfonamide-Based Drugs as Potential Carbonic Anhydrase Inhibitors in Trypanosoma cruzi: Virtual Screening and In Vitro Studies” (Pharmaceuticals, 2025).
